Reference: patent US20240190891A1, “PYRIDO OXAZINE AMINO DERIVATIVES AS ALK5 INHIBITORS” (CHIESI FARMACEUTICI S.P.A., priority 2020, published 2024)

The compounds below were run against T1, human ALK5 (Homo sapiens, UniProt P36897) (assay: ADP-GLO Kinases assay, inhibitory activity on ALK5). Details: Table 10; purified recombinant human ALK5 2.6 nM, ADP-Glo, 25° C., 150 min incubation.
T1 construct: human ALK5 (recombinant TGF β1 N-term GST-tagged, 80-end); GST (N); purchased
T1 sequence (P36897 80-503 limits assumed): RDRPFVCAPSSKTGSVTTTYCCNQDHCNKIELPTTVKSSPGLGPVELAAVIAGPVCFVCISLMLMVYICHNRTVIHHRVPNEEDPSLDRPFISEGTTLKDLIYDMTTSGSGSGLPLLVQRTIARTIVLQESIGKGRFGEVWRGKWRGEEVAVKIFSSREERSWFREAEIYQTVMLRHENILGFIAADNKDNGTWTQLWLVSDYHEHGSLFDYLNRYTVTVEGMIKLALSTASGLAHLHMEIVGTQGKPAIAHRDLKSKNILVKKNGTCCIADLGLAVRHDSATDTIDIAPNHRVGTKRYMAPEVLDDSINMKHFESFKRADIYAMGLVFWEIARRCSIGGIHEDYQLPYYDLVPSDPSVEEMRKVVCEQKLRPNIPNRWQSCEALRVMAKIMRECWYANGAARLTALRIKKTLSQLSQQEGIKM
Assay type: biochemical
Method: The enzymatic activity of compounds of the present invention was monitored measuring the formation of ADP using the ADP-GLO Kinases assay. Following the incubation of the purified enzyme, a substrate and ATP, the produced ADP was converted into ATP, which in turn was converted into light by Ultra-Glo Luciferase. The luminescent signal positively correlated with ADP amount and kinase activity. Briefly, the kinase reaction was performed by incubating 2.6 nM of the purified, commercially available human ALK5 (recombinant TGF β1 N-term GST-tagged, 80-end), a final concentration of TGFβ1 peptide 94.5 μM (Promega, T36-58) and ultra-pure ATP (Promega V915B). The ATP concentration was set at the Km value (concentration of substrate which permits the enzyme to achieve half maximal velocity (Vmax)) of ALK5 (5 μM). All reactions/incubations were performed at 25° C. Compound and ALK5 kinase were mixed and incubated for 15 mins. Reactions were initiated by addition of ATP at a final concentration in the assay of 0.83 μM. After an incubation of 150 min, the reaction was stopped, and ADP production detected with ADP-Glo kit according to manufacturer's indications. The assay was performed in 384-well format and was validated using a selection of reference compounds that was tested in 11 point concentration-response curve.
Compounds of the examples C1, C2 and C3 were tested in the same in vitro assay described above.

Row | SMILES | IC50 [nM]
1 | CN1CCN(CCOC(=O)c2cnccc2Nc2cc(-c3cc(Cl)ccc3F)nc3c2OCCN3)CC1 [Example 29, 2-(4-methylpiperazin-1-yl)ethyl 4-{[6-(5-chloro-2-fluorophenyl)-2H,3H,4H-pyrido[3,2-b][1,4]oxazin-8-yl]amino}pyridine-3-carboxylate] | < 1
2 | COC(=O)c1cnccc1Nc1cc(-c2cccc(C)n2)nc2c1OCCN2 [Example 30, methyl 4-{[6-(6-methylpyridin-2-yl)-2H,3H,4H-pyrido[3,2-b][1,4]oxazin-8-yl]amino}pyridine-3-carboxylate] | < 1
3 | CN1CCN(CCC(=O)Nc2cc(Nc3cc(-c4cc(Cl)ccc4F)nc4c3OCCN4)ccn2)CC1 [Example 33, N-(4-{[6-(5-chloro-2-fluorophenyl)-2H,3H,4H-pyrido[3,2-b][1,4]oxazin-8-yl]amino}pyridin-2-yl)-3-(4-methylpiperazin-1-yl)propanamide] | < 1
4 | CN(C)CCC(=O)Nc1cc(Nc2cc(-c3cc(Cl)ccc3F)nc3c2OCCN3)ccn1 [Example 34, N-(4-{[6-(5-chloro-2-fluorophenyl)-2H,3H,4H-pyrido[3,2-b][1,4]oxazin-8-yl]amino}pyridin-2-yl)-3-(dimethylamino)propanamide] | < 1
5 | Fc1ccc(Cl)cc1-c1cc(Nc2ccnc3[nH]cnc23)c2c(n1)NCCO2 [Example 35, 6-(5-chloro-2-fluorophenyl)-N-{3H-imidazo[4,5-b]pyridin-7-yl}-2H,3H,4H-pyrido[3,2-b][1,4]oxazin-8-amine] | < 1
6 | O=C(NCCN(CCO)CCO)c1cnccc1Nc1cc(-c2cc(Cl)ccc2F)nc2c1OCCN2 [Example 37, N-{2-[bis(2-hydroxyethyl)amino]ethyl}-4-{[6-(5-chloro-2-fluorophenyl)-2H,3H,4H-pyrido[3,2-b][1,4]oxazin-8-yl]amino}pyridine-3-carboxamide] | < 1
7 | COC(=O)c1cc2c(Nc3cc(-c4cc(Cl)ccc4F)nc4c3OCCN4)ccnc2[nH]1 [Example 38, methyl 4-{[6-(5-chloro-2-fluorophenyl)-2H,3H,4H-pyrido[3,2-b][1,4]oxazin-8-yl]amino}-1H-pyrrolo[2,3-b]pyridine-2-carboxylate] | < 1
8 | CN(C)CCC(=O)Nc1cnccc1Nc1cc(-c2cc(Cl)ccc2F)nc2c1OCCN2 [Example 39, N-(4-{[6-(5-chloro-2-fluorophenyl)-2H,3H,4H-pyrido[3,2-b][1,4]oxazin-8-yl]amino}pyridin-3-yl)-3-(dimethylamino)propanamide] | 5 to 10
9 | Cc1cccc(-c2cc(Nc3ccncc3C(=O)NC3CCN(C)CC3)c3c(n2)NCCO3)n1 [Example 42, N-(1-methylpiperidin-4-yl)-4-{[6-(6-methylpyridin-2-yl)-2H,3H,4H-pyrido[3,2-b][1,4]oxazin-8-yl]amino}pyridine-3-carboxamide] | 1 to 5
10 | Cc1cccc(-c2cc(Nc3ccnc4[nH]ccc34)c3c(n2)NCCO3)n1 [Example 45, 6-(6-methylpyridin-2-yl)-N-{1H-pyrrolo[2,3-b]pyridin-4-yl}-2H,3H,4H-pyrido[3,2-b][1,4]oxazin-8-amine] | < 1
11 | CN(C)CCNC(=O)c1cc2c(Nc3cc(-c4cc(Cl)ccc4F)nc4c3OCCN4)ccnc2[nH]1 [Example 49, 4-{[6-(5-chloro-2-fluorophenyl)-2H,3H,4H-pyrido[3,2-b][1,4]oxazin-8-yl]amino}-N-[2-(dimethylamino)ethyl]-1H-pyrrolo[2,3-b]pyridine-2-carboxamide] | < 1

Continued, values first:

Row | IC50 [nM] | SMILES
12 | 1 to 5 | CN1CCN(CCNC(=O)c2cnccc2Nc2cc(-c3cc(Cl)ccc3F)nc3c2OCCN3)CC1 [Example 28, 4-{[6-(5-chloro-2-fluorophenyl)-2H,3H,4H-pyrido[3,2-b][1,4]oxazin-8-yl]amino}-N-[2-(4-methylpiperazin-1-yl)ethyl]pyridine-3-carboxamide]
13 | < 1 | Fc1ccc(Cl)cc1-c1cc(Nc2ccnc3[nH]ccc23)c2c(n1)NCCO2 [Example 31, 6-(5-chloro-2-fluorophenyl)-N-{1H-pyrrolo[2,3-b]pyridin-4-yl}-2H,3H,4H-pyrido[3,2-b][1,4]oxazin-8-amine]
14 | < 1 | CN1CCC(NC(=O)c2cnccc2Nc2cc(-c3cc(Cl)ccc3F)nc3c2OCCN3)CC1 [Example 32, 4-{[6-(5-chloro-2-fluorophenyl)-2H,3H,4H-pyrido[3,2-b][1,4]oxazin-8-yl]amino}-N-(1-methylpiperidin-4-yl)pyridine-3-carboxamide]
15 | < 1 | COC(=O)c1c[nH]c2nccc(Nc3cc(-c4cc(Cl)ccc4F)nc4c3OCCN4)c12 [Example 36, methyl 4-{[6-(5-chloro-2-fluorophenyl)-2H,3H,4H-pyrido[3,2-b][1,4]oxazin-8-yl]amino}-1H-pyrrolo[2,3-b]pyridine-3-carboxylate]
16 | < 1 | Cc1cccc(-c2cc(Nc3ccnc4[nH]cnc34)c3c(n2)NCCO3)n1 [Example 40, N-{3H-imidazo[4,5-b]pyridin-7-yl}-6-(6-methylpyridin-2-yl)-2H,3H,4H-pyrido[3,2-b][1,4]oxazin-8-amine]
17 | < 1 | Cc1cccc(-c2cc(Nc3ccnc4[nH]ncc34)c3c(n2)NCCO3)n1 [Example 41, 6-(6-methylpyridin-2-yl)-N-{1H-pyrazolo[3,4-b]pyridin-4-yl}-2H,3H,4H-pyrido[3,2-b][1,4]oxazin-8-amine]
18 | 1 to 5 | CN(CCNC(=O)c1cnccc1Nc1cc(-c2cc(Cl)ccc2F)nc2c1OCCN2)C1COC1 [Example 43, 4-{[6-(5-chloro-2-fluorophenyl)-2H,3H,4H-pyrido[3,2-b][1,4]oxazin-8-yl]amino}-N-{2-[methyl(oxetan-3-yl)amino]ethyl}pyridine-3-carboxamide]
19 | 1 to 5 | CS(=O)(=O)N1CCN(CCNC(=O)c2cnccc2Nc2cc(-c3cc(Cl)ccc3F)nc3c2OCCN3)CC1 [Example 46, 4-{[6-(5-chloro-2-fluorophenyl)-2H,3H,4H-pyrido[3,2-b][1,4]oxazin-8-yl]amino}-N-[2-(4-methanesulfonylpiperazin-1-yl)ethyl]pyridine-3-carboxamide]
20 | 1 to 5 | CC(=O)N1CCN(CCNC(=O)c2cnccc2Nc2cc(-c3cc(Cl)ccc3F)nc3c2OCCN3)CC1 [Example 47, N-[2-(4-acetylpiperazin-1-yl)ethyl]-4-{[6-(5-chloro-2-fluorophenyl)-2H,3H,4H-pyrido[3,2-b][1,4]oxazin-8-yl]amino}pyridine-3-carboxamide]
21 | < 1 | CN1CCC(CCNC(=O)c2cc3c(Nc4cc(-c5cc(Cl)ccc5F)nc5c4OCCN5)ccnc3[nH]2)CC1 [Example 48, 4-{[6-(5-chloro-2-fluorophenyl)-2H,3H,4H-pyrido[3,2-b][1,4]oxazin-8-yl]amino}-N-[2-(1-methylpiperidin-4-yl)ethyl]-1H-pyrrolo[2,3-b]pyridine-2-carboxamide]

Same assay, conditions: Table 11, comparative examples; same in vitro assay

Row | SMILES | IC50 [nM]
22 | Fc1ccc(Cl)cc1-c1cc(-c2ccncc2)c2c(n1)NCCO2 [Example C1, 4-[6-(5-chloro-2-fluorophenyl)-2H,3H,4H-pyrido[3,2-b][1,4]oxazin-8-yl]pyridine, reference compound] | 6500
23 | Oc1ccc(-c2cc(-c3cc(Cl)ccc3F)nc3c2OCCN3)cc1 [Example C2, 4-[6-(5-chloro-2-fluorophenyl)-2H,3H,4H-pyrido[3,2-b][1,4]oxazin-8-yl]phenol, reference compound] | 1700
